Test results published in PMC7915940, “Synthesis, Antitumor and Antibacterial Studies of New Shortened Analogues of (KLAKLAK)2-NH2 and Their Conjugates Containing Unnatural Amino Acids” (Molecules, 2021).
Read-outs that look alike come from different tables or passages of the source. Non-standard residues stand in square brackets, D forms with d. Residues, ends and D or L forms follow the SMILES beside them. *: point of attachment. Acetyl(1,8-naphthalimido) = O=C1c2cccc3cccc(c23)C(=O)N1CC(=O)*; Caffeoyl = O=C(/C=C/c1ccc(O)c(O)c1)*; Nle = CCCC[C@H](N)C(=O)O; βAla = NCCC(=O)O

How the values were obtained:
[1] = In vitro cytotoxicity testing (3T3 NRU test); assay type: cell-based; conditions: mouse
Protocol: The newly synthesized compounds were studied for cytotoxicity by standard method (3T3 NRU-test). The cells were incubated with the test substances at a concentration of 30 to 4000 μM for 24 h. The cytotoxicity expressed, in % relative to the negative control was determined.
The cytotoxicity testing was performed as described by Borenfreund et al. and the latest modification of the validated BALB/3T3 clone A31 Neutral Red Uptake Assay (3T3 NRU test) for cytotoxicity testing. BALB/3T3, clone A31 mouse embryo cells were grown as monolayer in 75 cm^2 tissue culture flasks in DMEM high-glucose (4.5 g/L), supplemented with 10% FBS and antibiotics (Sigma-Aldrich, Schnelldorf, Germany). Cultures were maintained at 37.5 °C in a humidified atmosphere under 5% CO2. Cells were plated at a density of 1 × 10^4 cells in 100 μL culture medium in each well of 96-well flat-bottomed microplates (Biologix, Lenexa, KS, USA) and allowed to adhere for 24 h. The test compounds, dissolved in DMSO and diluted in culture medium to concentration range 30 to 4000 μM were then added and the cell cultures were incubated for additional 24 h. […] After treatment with Neutral Red medium, washing and treatment with the Ethanol/Acetic acid solution (NR Desorb), the absorption was measured on a TECAN microplate reader (TECAN, Grödig, Austria) at wavelength 540 nm.

MCF-10A cells = assay type: cell-based, human; conditions: 72 h
Protocol: (§1) The compounds were studied for antiproliferative activity by standard MTT dye reduction assay. Cell cultures from different cell line types (MCF-10A, MCF-7 and MDA-MB-231) were incubated with the test substances at a concentration of 15 to 2000 μM for 72 h. The antiproliferative activity expressed in % relative to the negative control was determined. The obtained results are shown on Figure 2. MCF-10A is a reliable model for normal human mammary epithelial cells, which serves as a control in experiments to determine antitumor activity. The IC50 values, found in MCF-10A, are used to calculate a selective index (SI), which assesses the potential of a substance to be used as an antitumor agent. We used the following formula to calculate the selective index SI = IC50 of MCF-10A / IC50 of tumor cells. The highest selective index with respect to MCF-7 is shown by the substances: Si3 (SI = 8.35), Si11 (SI = 2.62) and Si1 (SI = 1.24).
(§2) The antiproliferative activity testing was performed on cell cultures from several human cell lines using the standard MTT-dye reduction assay, described by Mosmann. The assay is based on the metabolism of the tetrazolium salt MTT to insoluble formazan by mitochondrial reductases. The formazan concentration can be determined spectrophotometrically. The measured absorption is an indicator of cell viability and metabolic activity. Cell lines: mammary gland type A adenocarcinoma ER+, PR+, HER2- (MCF-7), triple-negative breast cancer ER-, PR-, HER2- (MDA-MB-231) and breast, non-tumorigenic epithelial cell line (MCF-10A) were used in experiments. The cell lines were routinely grown as monolayers in 75 cm^2 tissue culture flasks under standard conditions (described above). Cells were plated at a density of 1 × 10^3 cells in 100 µL in each well of 96-well flat-bottomed microplates and allowed to adhere for 24 h before treatment with test compounds. A concentration range from 15 to 2000 μM was applied for 72 h. The formazan absorption was registered using a microplate reader at λ = 540 nm. Antiproliferative activities were expressed as IC50 values (concentrations required for 50% inhibition of cell growth), calculated using non-linear regression analysis (GraphPad Software, San Diego, CA, USA).

MCF-7 cells = assay type: cell-based, human; conditions: for selectivity with respect to the studied tumor cell lines (in words): MCF-7 and MDA-MB-231 versus MCF-10A
Protocol: as §1, §2

MDA-MB-231 cells = assay type: cell-based, human; conditions: 72 h
Protocol: as §1, §2

Escherichia coli K12 407 = assay type: cell-based; conditions: for antibacterial effect, zones free of microbial growth (in words): agar diffusion, E. coli K12 407
Protocol: Antibacterial properties of the obtained new peptides and their conjugates were tested against E. coli K12 407 strain. Antibacterial activity of tested compounds was proven through appear of free zone around the loaded disk-paper by means of agar-diffusion method (Figure 3).
All newly synthesized derivatives of (KLAKLAK)2-NH2 at two concentrations 10 μM and 20 μM, were tested against facultative anaerobic gram-negative Esherichia coli NBIMCC K12 407. The strains were obtained from the culture collection of Bulgarian National Bank for Industrial Microorganisms and Cell Cultures (Sofia, Bulgaria) and were cultured in Luria-Bertani (LB) medium (Mumbai, India). The microbiological tests were performed using the agar diffusion method. The overnight pure cultures from tested strains were prepared in liquid LB-medium. A single colony was used for inoculating the liquid LB medium in order to maintain initial bacterial concentration of 1 × 10^7 cfu/mL. 100 µL of bacterial suspensions were seeded on agar plates with solid LB-medium. After 30 min, sterile paper disks 6 mm in diameter were soaked with tested samples in amount of 6 µL and placed on the agar petri dishes surface. The plates were incubated for 24 h at 37 °C. The appeared inhibition zones and their size were measured. The sterile paper disks soaked with water was used as blank. Mean values were calculated by performing the experiments in triplicates.

[2] = MDA-MB-231, MTT, 15 to 2000 μM, read-out: IC50 of Mean ± SD, Antiproliferative Activity, MDA-MB-231

SMILES | IC50 (MCF-7 cells; 72 h) [µM] | IC50 (MDA-MB-231 cells) [µM] | melting point [°C] | IC50 at 24 h [1] [µM] | IC50 (MCF-10A cells) [µM] | selectivity with respect to the studied tumor cell lines (in words) (MCF-7 cells) | activity against Escherichia coli K12 407 (in words) (Escherichia coli K12 407; 20 μM) | antibacterial effect, zones free of microbial growth (in words) (Escherichia coli K12 407) | selective index (SI) with respect to MCF-7 (MCF-7 cells; 72 h) | IC50 at 24 h ([1]; BALB/3T3 cells, NRU, 24 h, 30 to 4000 μM, read-out: IC50 of Mean ± SD, Cytotoxicity, BALB/3T3) [µM] | IC50 (MCF-10A cells; MCF-10A, MTT, 15 to 2000 μM, read-out: IC50 of Mean ± SD, Antiproliferative Activity, MCF-10A) [µM] | IC50 (MCF-7 cells; MCF-7, MTT, 72 h, 15 to 2000 μM, read-out: IC50 of Mean ± SD, Antiproliferative Activity, MCF-7) [µM] | selective index (SI) with respect to MCF-7 (MCF-7 cells; SI = IC50 of MCF-10A / IC50 of MCF-7) | IC50 (MDA-MB-231 cells; [2]) [µM] | Average inhibition zones size (Escherichia coli K12 407; 20 μM, E. coli K12 407, 24 h at 37 °C, three replicates ± SD) [mm]
CC(C)C[C@H](NC(=O)[C@H](CCCCN)NC(=O)CCNC(=O)[C@H](CC(C)C)NC(=O)[C@@H](N)CCCCN)C(=O)NCCC(=O)N[C@@H](CCCCN)C(N)=O [Si3, KLβAKLβAK-NH2] (H-KL[βAla]KL[βAla]K-NH2; N-terminus assumed) | 176 ± 4.66 | > 2000 | – | 2870 ± 130 | 1470 ± 104 | significant selective index | – | – | 8.33 | – | – | – | – | – | –
CC(C)C[C@H](NC(=O)[C@H](CCCCN)NC(=O)CCNC(=O)[C@H](CC(C)C)NC(=O)[C@H](CCCCN)NC(=O)CN1C(=O)c2cccc3cccc(c23)C1=O)C(=O)NCCC(=O)N[C@@H](CCCCN)C(N)=O [Si2, 1,8-naphthalimideG-KLβAKLβAK-NH2] ({Acetyl(1,8-naphthalimido)}-KL[βAla]KL[βAla]K-NH2) | 663 ± 20 | 840 ± 21.2 | – | 1430 ± 48.4 | 666 ± 20.9 | no significant SI is observed | – | – | – | – | – | – | – | – | –
CC(C)C[C@H](NC(=O)[C@H](CCCCN)NC(=O)[C@H](C)NC(=O)[C@H](CC(C)C)NC(=O)[C@@H](N)CCCCN)C(=O)N[C@@H](C)C(=O)N[C@@H](CCCCN)C(N)=O [Si6, KLAKLAK-NH2] (H-KLAKLAK-NH2; N-terminus assumed) | > 2000 | > 2000 | – | > 4000 | > 2000 | do not show selectivity | moderate activity | clear zones free of microbial growth | – | – | – | – | – | – | –
CC(C)C[C@H](NC(=O)[C@H](CCCCN)NC(=O)[C@H](C)NC(=O)[C@H](CC(C)C)NC(=O)[C@H](CCCCN)NC(=O)[C@H](CCCCN)NC(=O)[C@H](C)NC(=O)[C@H](CC(C)C)NC(=O)[C@H](CCCCN)NC(=O)[C@H](C)NC(=O)[C@H](CC(C)C)NC(=O)[C@@H](N)CCCCN)C(=O)N[C@@H](C)C(=O)N[C@@H](CCCCN)C(N)=O [Si1, (KLAKLAK)2-NH2] | – | – | – | – | – | – | – | clear zones free of microbial growth | – | 365 ± 4.08 | 154 ± 6.53 | 124 ± 8.12 | 1.24 | 746 ± 7.6 | 5 ± 0.15
N.N.[Cl][Pt][Cl] [Cisplatin, reference compound] | – | – | – | – | – | – | – | – | – | – | – | – | – | 1.83 ± 0.13 | –

More lines, main results first:

IC50 (MCF-7 cells; 72 h) [µM] | IC50 (MDA-MB-231 cells) [µM] | melting point [°C] | SMILES | IC50 at 24 h [1] [µM] | IC50 (MCF-10A cells) [µM] | selectivity with respect to the studied tumor cell lines (in words) (MCF-7 cells) | activity against Escherichia coli K12 407 (in words) (Escherichia coli K12 407; 20 μM) | antibacterial effect, zones free of microbial growth (in words) (Escherichia coli K12 407) | selective index (SI) with respect to MCF-7 (MCF-7 cells; 72 h) | IC50 at 24 h ([1]; BALB/3T3 cells, NRU, 24 h, 30 to 4000 μM, read-out: IC50 of Mean ± SD, Cytotoxicity, BALB/3T3) [µM] | IC50 (MCF-10A cells; MCF-10A, MTT, 15 to 2000 μM, read-out: IC50 of Mean ± SD, Antiproliferative Activity, MCF-10A) [µM] | IC50 (MCF-7 cells; MCF-7, MTT, 72 h, 15 to 2000 μM, read-out: IC50 of Mean ± SD, Antiproliferative Activity, MCF-7) [µM] | selective index (SI) with respect to MCF-7 (MCF-7 cells; SI = IC50 of MCF-10A / IC50 of MCF-7) | IC50 (MDA-MB-231 cells; [2]) [µM] | Average inhibition zones size (Escherichia coli K12 407; 20 μM, E. coli K12 407, 24 h at 37 °C, three replicates ± SD) [mm]
593 ± 60.3 | 1050 ± 49.8 | – | CCCC[C@H](NC(=O)[C@H](CCCCN)NC(=O)CN1C(=O)c2cccc3cccc(c23)C1=O)C(=O)N[C@@H](C)C(=O)N[C@@H](CCCCN)C(=O)N[C@@H](CCCC)C(=O)N[C@@H](C)C(=O)N[C@@H](CCCCN)C(N)=O [Si14, 1,8-naphthalimideG-KnLAKnLAK-NH2] ({Acetyl(1,8-naphthalimido)}-K[Nle]AK[Nle]AK-NH2) | 2890 ± 61.4 | 631 ± 51.2 | No selectivity | moderate activity | clear zones free of microbial growth | – | – | – | – | – | – | –
229 ± 7.18 | 1090 ± 70.7 | – | CC(C)C[C@H](NC(=O)[C@H](CCCCN)NC(=O)/C=C/c1ccc(O)c(O)c1)C(=O)NCCC(=O)N[C@@H](CCCCN)C(=O)N[C@@H](CC(C)C)C(=O)NCCC(=O)N[C@@H](CCCCN)C(N)=O [Si11, Caf-KLβAKLβAK-NH2] (Caffeoyl-KL[βAla]KL[βAla]K-NH2) | 742 ± 18.5 | 597 ± 53 | significant selective index | – | – | 2.62 | – | – | – | – | – | –
140 ± 7.12 | 346 ± 7.91 | – | CCCC[C@H](NC(=O)[C@H](CCCCN)NC(=O)/C=C/c1ccc(O)c(O)c1)C(=O)N[C@@H](C)C(=O)N[C@@H](CCCCN)C(=O)N[C@@H](CCCC)C(=O)N[C@@H](C)C(=O)N[C@@H](CCCCN)C(N)=O [Si15, Caf-KnLAKnLAK-NH2] (Caffeoyl-K[Nle]AK[Nle]AK-NH2) | 1514 ± 12.2 | 147 ± 7.96 | No selectivity | – | – | – | – | – | – | – | – | –
129 ± 8.03 | 514 ± 26.8 | 154 | CC(C)C[C@H](NC(=O)[C@H](CCCCN)NC(=O)/C=C/c1ccc(O)c(O)c1)C(=O)N[C@@H](C)C(=O)N[C@@H](CCCCN)C(=O)N[C@@H](CC(C)C)C(=O)N[C@@H](C)C(=O)N[C@@H](CCCCN)C(N)=O [Si8, Caf-KLAKLAK-NH2] (Caffeoyl-KLAKLAK-NH2) | 710 ± 11.9 | 136 ± 7.09 | do not show selectivity | – | clear zones free of microbial growth | – | – | – | – | – | – | –
1200 ± 132 | > 2000 | – | CC(C)C[C@H](NC(=O)[C@H](CCCCN)NC(=O)CN1C(=O)c2cccc3cccc(c23)C1=O)C(=O)N[C@@H](C)C(=O)N[C@@H](CCCCN)C(=O)N[C@@H](CC(C)C)C(=O)N[C@@H](C)C(=O)N[C@@H](CCCCN)C(N)=O [Si7, 1,8-naphthalimideG-KLAKLAK-NH2] ({Acetyl(1,8-naphthalimido)}-KLAKLAK-NH2) | 3420 ± 51.3 | 1140 ± 64.5 | do not show selectivity | – | – | – | – | – | – | – | – | –
1700 ± 112 | > 2000 | – | CCCC[C@H](NC(=O)[C@H](CCCCN)NC(=O)[C@H](C)NC(=O)[C@H](CCCC)NC(=O)[C@@H](N)CCCCN)C(=O)N[C@@H](C)C(=O)N[C@@H](CCCCN)C(N)=O [Si13, KnLAKnLAK-NH2] (H-K[Nle]AK[Nle]AK-NH2; N-terminus assumed) | > 4000 | > 2000 | – | – | – | – | – | – | – | – | – | –
